This note sets out measurements from ChEMBL document CHEMBL4130367, “Click chemistry-based synthesis and anticancer activity evaluation of novel C-14 1,2,3-triazole dehydroabietic acid hybrids” (Eur J Med Chem, 2017).

The source made the active and inactive calls. The rule behind the calls is not given here.

One data set relates to PC-3. Nature of the data set: Cytotoxicity against human PC3 cells assessed as reduction in cell viability after 72 hrs by MTT assay. The data set is classed as functional, cell-based. The note with it: PC-3, 72 h. On the technique in general: Tetrazolium assays rely on reduction of a dye to a coloured formazan, in cell work by metabolically active cells.
In data set [1] the test system is MDA-MB-231. Description: Cytotoxicity against human MDA-MB-231 cells assessed as reduction in cell viability after 72 hrs by MTT assay. It counts as functional, cell-based. To be noted: MDA-MB-231, 72 h.
The subject of a further data set is LNCaP. Description: Cytotoxicity against human LNCAP cells assessed as reduction in cell viability after 72 hrs by MTT assay. The data set is classed as functional, cell-based.
A short description of data set [2]: Selectivity index, ratio of IC50 for human HL7702 cells to IC50 for human SKBR3 cells. The data set is classed as toxicity. To be noted: HL7702 cells versus SKBR3 cells, read-out: Ratio IC50.
The nature of data set [3]: Selectivity index, ratio of IC50 for human HL7702 cells to IC50 for human LNCAP cells. The data set is classed as toxicity. To be noted: HL7702 cells versus LNCAP cells, read-out: Ratio IC50.
A short description of data set [4]: Selectivity index, ratio of IC50 for human HL7702 cells to IC50 for human SMCC7721 cells. It counts as toxicity. To be noted: HL7702 cells versus SMCC7721 cells, read-out: Ratio IC50.
The nature of data set [5]: Selectivity index, ratio of IC50 for HFF cells to IC50 for human SKBR3 cells. To be noted: HFF cells versus SKBR3 cells, read-out: Ratio IC50. The data set is classed as toxicity.
Data set [6] can be described thus: Metabolic stability in mouse liver microsomes assessed as parent compound remaining after 30 mins in presence of NADPH by HPLC analysis. To be noted: read-out: Stability. It counts as ADME, microsome. Background: Microsomes from liver hold many membrane-bound enzymes, among them those of drug oxidation.
Data set [7] is described as follows: Metabolic stability in dog liver microsomes assessed as parent compound remaining after 30 mins in presence of NADPH by HPLC analysis. The data set is classed as ADME, Canis lupus familiaris, microsome. The note with it: read-out: Stability.
Data set [8] in a line: Metabolic stability in mouse liver microsomes assessed as parent compound remaining after 60 mins in presence of NADPH by HPLC analysis. The data set is classed as ADME, microsome. To be noted: read-out: Stability.
A short description of data set [9]: Metabolic stability in dog liver microsomes assessed as parent compound remaining after 60 mins in presence of NADPH by HPLC analysis. The data set is classed as ADME, Canis lupus familiaris, microsome. To be noted: read-out: Stability.
Data set [10] is described as follows: Metabolic stability in rat liver microsomes assessed as parent compound remaining after 90 mins in presence of NADPH by HPLC analysis. The data set is classed as ADME, microsome. The note with it: read-out: Stability.
The nature of data set [11]: Metabolic stability in rat liver microsomes assessed as parent compound remaining after 150 mins in presence of NADPH by HPLC analysis. It counts as ADME, microsome. The note with it: read-out: Stability.
Data set [12] can be described thus: Half life in rat liver microsomes in presence of NADPH by HPLC analysis. It counts as ADME, microsome.
The test system of another data set is A549. Nature of the data set: Induction of apoptosis in human A549 cells assessed as genomic DNA fragmentation at 2.5 uM after 24 hrs by DAPI/TUNEL staining based spectrofluorometric method. It counts as functional, cell-based.
For data set [13], the system named is MDA-MB-231. Description: Induction of apoptosis in human MDA-MB-231 cells assessed as late apoptotic cells at 0.1 uM after 24 hrs by Annexin V-FITC/propidium iodide staining based flow cytometry (reference value: 2.97%). It counts as functional.
Data set [14] deals with MDA-MB-231. Nature of the data set: Induction of apoptosis in human MDA-MB-231 cells assessed as cleaved caspase-3 protein expression up to 1 uM after 48 hrs by Western blot analysis. It counts as functional, cell-based. For orientation: Immunoblotting shows a protein as a band on a membrane.

With `COC(=O)[C@]1(C)CCC[C@]2(C)c3ccc(C(C)C)c(NC(=O)Cn4cc(-c5cccc(NC(=O)OC(C)(C)C)c5)nn4)c3CC[C@@H]12`, the results for the IC50 with PC-3, in the data set on MDA-MB-231 [1] and in the data set with LNCaP were 900 nM, 700 nM and 600 nM, respectively. The selectivity ratio in [2] was 8.4; in data set [3] it was 12.4; in data set [4], 7.6; in data set [5], 5.8. The remaining at 0.5 h in data set [6] worked out at 87.9%; in data set [7], 77.3%. Also, the remaining at 1 h turned out to be 72.6% in [8] and 59% in data set [9]. The remaining at 1.5 h in data set [10] is 70.5%. Besides, the remaining at 2.5 h in [11] was 42.1%. For the same molecule, in data set [12], the half-life was determined as 2.19 h. Moreover, the result with A549 and in the data set on MDA-MB-231 [14] was Active. For the same molecule, the Activity in the data set on MDA-MB-231 [13] came to 9.91%.

A word on the IC50: it is the concentration that inhibits the measured activity by half. One may read the half-life as the time in which the quantity being followed falls by half.
